Measured values published in PMC12603985, “Dissimilar Reactions and Enzymes for Psilocybin Biosynthesis in Inocybe and Psilocybe Mushrooms” (Angewandte Chemie (International Ed. in English), 2025).

Tests used:
Assay type in all cases: biochemical, Inocybe corydalina
[1] = test system: T1, IpsK; assay: Michaelis-Menten kinetics of phosphotransfer; conditions: phosphate donor ATP; product assays in TRIS-HCl pH 7.5
T1 construct: N-terminally hexahistidine-tagged; recombinant, purified

[2] = test system: T2, IpsM1; assay: Michaelis-Menten kinetics of methyl transfer; conditions: methyl donor SAM; product assays in TRIS-HCl pH 7.5
T2 construct: heterologously produced and purified

[3] = test system: T3, IpsM2; assay: Michaelis-Menten kinetics of methyl transfer; conditions: methyl donor SAM; product assays in TRIS-HCl pH 7.5
T3 construct: heterologously produced and purified

[4] = test system: T4, IpsD; assay: Michaelis-Menten kinetics of decarboxylation; conditions: PLP-dependent
T4 construct: obligate dimer predicted by the model; PLP lysine K300

| Structure (SMILES) | Km [1] | Km [2] | Km [3] | Km [4] |
| --- | --- | --- | --- | --- |
| CN(C)CCc1c[nH]c2cccc(O)c12 [compound 4, psilocin] | 20.5 µM | – | – | – |
| NCCc1c[nH]c2cccc(O)c12 [compound 5, 4-hydroxytryptamine] | – | 101 µM | 64.5 µM | – |
| N[C@@H](Cc1c[nH]c2cccc(O)c12)C(=O)O [compound 7, 4-hydroxy-L-tryptophan] | – | – | – | 66 µM |
| CNCCc1c[nH]c2cccc(O)c12 [compound 10, 10] | 337 µM | 138 µM | 433 µM | – |
